Assay results published in ChEMBL document CHEMBL1133933, “Imidazolopyrazinones as potential antioxidants” (Bioorg Med Chem Lett, 2001).

Columns and labels:
[1] = Krel expressed as Ki with respect to Ktrolox
[2] = Reaction rate constant of the compound

Krel [1]	reaction rate constant [2]	SMILES
7.1	120000 M⁻¹ s⁻¹	Oc1ccc(Cc2nc3c(Cc4ccccc4)nc(-c4ccc(O)cc4)cn3c2O)cc1 [COELENTERAZINE]
6.2	105000 M⁻¹ s⁻¹	Cl.Oc1ccc(-c2cn3c(O)c(-c4ccccc4)nc3cn2)cc1
3.8	65000 M⁻¹ s⁻¹	Cl.Oc1c(Cc2ccccc2)nc2cnc(-c3ccccc3)cn12
1.6	28000 M⁻¹ s⁻¹	Cl.Oc1c(Cc2ccccc2)nc2cnccn12
9.4	160000 M⁻¹ s⁻¹	COc1ccc(-c2cn3c(O)c(Cc4ccccc4)nc3cn2)cc1.Cl
5.6	96000 M⁻¹ s⁻¹	COc1ccc(-c2cn3c(O)c(Cc4ccc(O)cc4)nc3c(Cc3ccccc3)n2)cc1
1.9	33000 M⁻¹ s⁻¹	Cl.Oc1ccc(-c2cn3c(O)c(Cc4ccccc4)nc3cn2)cc1
16.5	280000 M⁻¹ s⁻¹	COc1ccc(-c2cn3c(O)c(C)nc3cn2)cc1.Cl

Further lines, the compound ahead of its results:

SMILES	Krel [1]	reaction rate constant [2]
Cc1nc2cnc(-c3ccc(O)cc3)cn2c1O.Cl	12.3	210000 M⁻¹ s⁻¹
Cc1nc2cnccn2c1O.Cl	3.5	60000 M⁻¹ s⁻¹
Cc1c(C)c2c(c(C)c1O)CCC(C)(C(=O)O)O2 (stereo unspecified) [TROLOX]	1	17000 M⁻¹ s⁻¹
Cl.Oc1c(-c2ccccc2)nc2cnccn12	4.9	84000 M⁻¹ s⁻¹
Cc1nc2cnc(-c3ccccc3)cn2c1O.Cl	10	170000 M⁻¹ s⁻¹
